These results are taken from ChEMBL document CHEMBL3045826, “Synthesis of new derivatives of 2,2-dimethyl-2,3-dihydro-7-benzo[b]furanol with potential antimicrobial activity” (Med Chem Res, 2009).

Structures are written as SMILES. Converted amounts (≈) assume the structure as drawn. The source made the active and inactive calls. The rule behind the calls is not given here.

The test system of data set [1] is Pseudomonas aeruginosa. Kind of data set: Antibacterial activity against Pseudomonas aeruginosa ATCC 15442 after 18 hr. Format: functional. Conditions: ATCC 15442, 18 h.
Data set [2] concerns Proteus vulgaris. Description: Antibacterial activity against Proteus vulgaris NCTC 4635 after 18 hr. Format: functional. Conditions: NCTC 4635, 18 h.
For data set [3], the system named is Pseudomonas aeruginosa. Kind of data set: Antibacterial activity against Pseudomonas aeruginosa NCTC 6749 after 18 hr. Format: functional, organism-based.
Data set [4] relates to Escherichia coli. Kind of data set: Antibacterial activity against Escherichia coli NCTC 8196 after 18 hr. Format: functional, organism-based.
Data set [5] has as its system Escherichia coli. Kind of data set: Antibacterial activity against Escherichia coli ATCC 10538 after 18 hr. Format: functional, organism-based.
In data set [6] the test system is Enterococcus hirae. Kind of data set: Antibacterial activity against Enterococcus hirae ATCC 10541 after 18 hr. It counts as functional. The settings on record: ATCC 10541, 18 h.
In data set [7] the test system is Escherichia coli. Description: Antibacterial activity against Escherichia coli ATCC 25922 after 18 hr. It counts as functional, organism-based.
Data set [8] deals with Bacillus subtilis. Kind of data set: Antibacterial activity against Bacillus subtilis ATCC 6633 after 18 hr. It counts as functional. Conditions: ATCC 6633, 18 h.
The test system of data set [9] is Staphylococcus aureus. Description: Antibacterial activity against Staphylococcus aureus ATCC 29213 after 18 hr. The settings on record: ATCC 29213, 18 h. It counts as functional.
The test system of data set [10] is Staphylococcus aureus. Kind of data set: Antibacterial activity against Staphylococcus aureus ATCC 6538P after 18 hr. Format: functional.
Data set [11] concerns Staphylococcus aureus. Description: Antibacterial activity against Staphylococcus aureus NCTC 4163 after 18 hr. Format: functional. The settings on record: NCTC 4163, 18 h.
In data set [12] the test system is Staphylococcus aureus. Description: Antibacterial activity against Staphylococcus aureus ATCC 25923 after 18 hr. Format: functional. Conditions: ATCC 25923, 18 h.
Data set [13] concerns Candida parapsilosis. Kind of data set: Antifungal activity against Candida parapsilosis ATCC 22019 at 400 ug after 24 to 48 hr by disk diffusion method. It counts as functional. (In agar diffusion tests the substance spreads into inoculated agar from a disc or well.)
The subject of data set [14] is Candida albicans. Kind of data set: Antifungal activity against Candida albicans ATCC 10231 at 400 ug after 24 to 48 hr by disk diffusion method. It counts as functional.
The test system of data set [15] is Candida albicans. Description: Antifungal activity against Candida albicans ATCC 90028 at 400 ug after 24 to 48 hr by disk diffusion method. Format: functional.
The test system of data set [16] is Bordetella bronchiseptica. Kind of data set: Antibacterial activity against Bordetella bronchiseptica ATCC 461 at 400 ug after 18 hr by disk diffusion method. Format: functional.
In data set [17] the test system is Pseudomonas aeruginosa. Description: Antibacterial activity against Pseudomonas aeruginosa ATCC 15442 at 400 ug after 18 hr by disk diffusion method. Format: functional.
Data set [18] relates to Pseudomonas aeruginosa. Kind of data set: Antibacterial activity against Pseudomonas aeruginosa NCTC 6749 at 400 ug after 18 hr by disk diffusion method. Format: functional, organism-based.
For data set [19], the system named is Proteus vulgaris. Kind of data set: Antibacterial activity against Proteus vulgaris NCTC 4635 at 400 ug after 18 hr by disk diffusion method. Format: functional.
For data set [20], the system named is Escherichia coli. Kind of data set: Antibacterial activity against Escherichia coli NCTC 8196 at 400 ug after 18 hr by disk diffusion method. It counts as functional.
The subject of data set [21] is Escherichia coli. Kind of data set: Antibacterial activity against Escherichia coli ATCC 25922 at 400 ug after 18 hr by disk diffusion method. Format: functional.
Data set [22] concerns Escherichia coli. Description: Antibacterial activity against Escherichia coli ATCC 10538 at 400 ug after 18 hr by disk diffusion method. Format: functional.
Data set [23] relates to Enterococcus hirae. Description: Antibacterial activity against Enterococcus hirae ATCC 10541 at 400 ug after 18 hr by disk diffusion method. Format: functional.
Data set [24] deals with Bacillus subtilis. Description: Antibacterial activity against Bacillus subtilis ATCC 6633 at 400 ug after 18 hr by disk diffusion method. Format: functional.
For data set [25], the system named is Staphylococcus aureus. Kind of data set: Antibacterial activity against Staphylococcus aureus ATCC 6538P at 400 ug after 18 hr by disk diffusion method. Format: functional.
In data set [26] the test system is Staphylococcus aureus. Kind of data set: Antibacterial activity against Staphylococcus aureus ATCC 29213 at 400 ug after 18 hr by disk diffusion method. It counts as functional.
The subject of data set [27] is Staphylococcus aureus. Kind of data set: Antibacterial activity against Staphylococcus aureus NCTC 4163 at 400 ug after 18 hr by disk diffusion method. It counts as functional.
In data set [28] the test system is Staphylococcus aureus. Description: Antibacterial activity against Staphylococcus aureus ATCC 25923 at 400 ug after 18 hr by disk diffusion method. It counts as functional.
Data set [29] concerns Candida parapsilosis. Description: Antifungal activity against Candida parapsilosis ATCC 22019 after 18 hr. Conditions: Lodderomyces parapsilosis, ATCC 22019, 18 h. It counts as functional.
Data set [30] relates to Candida albicans. Kind of data set: Antifungal activity against Candida albicans ATCC 90028 after 18 hr. It counts as functional. Conditions: ATCC 90028, 18 h.
Data set [31] concerns Bordetella bronchiseptica. Kind of data set: Antibacterial activity against Bordetella bronchiseptica ATCC 461 after 18 hr. Format: functional, organism-based.
The subject of data set [32] is Candida albicans. Description: Antifungal activity against Candida albicans ATCC 10231 after 18 hr. It counts as functional. Conditions: ATCC 10231, 18 h.
A short description of data set [33]: Cytotoxicity against Homo sapiens (human) MT4 cells after 96 hr by MTT assay. It counts as cell-based.
In data set [34] the test system is Human immunodeficiency virus 1. Kind of data set: Antiviral activity against Human immunodeficiency virus 1 infected human MT4 cells assessed as inhibition of virus-induced cytopathogenicity after 4 days by MTT assay. It counts as functional, organism-based. The settings on record: Human immunodeficiency virus 1, MT4, 96 h. (Protection from cytopathic effect is a common read-out in antiviral testing.)

As to `CC1(C)Cc2c(Br)c(Br)c(Br)c(OCC(O)CN3CCCCC3)c2O1` (stereo not given), the MIC (usually the lowest concentration found to suppress growth) against Pseudomonas aeruginosa [1] is 25 mg/L (≈ 46.1 µM); in the data set with Proteus vulgaris [2], 50 mg/L (≈ 92.2 µM); against Enterococcus hirae [6] it was 50 mg/L (≈ 92.2 µM); against Bacillus subtilis [8], 12.5 mg/L (≈ 23.1 µM); with Staphylococcus aureus [9] it was 100 mg/L (≈ 184 µM); against Staphylococcus aureus [10], 50 mg/L (≈ 92.2 µM). Moreover, the minimal inhibitory concentration (MIC) in the data set on Staphylococcus aureus [11] amounted to 50 mg/L (≈ 92.2 µM); against Staphylococcus aureus [12], 50 mg/L (≈ 92.2 µM); against Candida parapsilosis [29] it was 100 mg/L (≈ 184 µM); with Candida albicans [30], 100 mg/L (≈ 184 µM); in the data set on Candida albicans [32], 100 mg/L (≈ 184 µM). In addition, the MIC result (in the data set on Pseudomonas aeruginosa [3]; in the data set with Escherichia coli [4]; in the data set with Escherichia coli [5]; in the data set with Escherichia coli [7]; in data set [31]) was “inactive” throughout. The zone of inhibition at 400 µg/disc in the data set on Candida parapsilosis [13] (Lodderomyces parapsilosis, read-out: DIZ) worked out at 18 mm; in the data set with Candida albicans [14] (read-out: DIZ), 18 mm; in the data set on Candida albicans [15] (read-out: DIZ), 18 mm; with Pseudomonas aeruginosa [17] (ATCC 15442, 18 h, read-out: DIZ), 20 mm; in the data set on Proteus vulgaris [19] (NCTC 4635, 18 h, read-out: DIZ), 20 mm; in the data set on Enterococcus hirae [23] (ATCC 10541, 18 h, read-out: DIZ) it was 17 mm. In addition, the zone of inhibition at 400 µg/disc in the data set with Bacillus subtilis [24] (ATCC 6633, 18 h, read-out: DIZ) was 19 mm; in the data set with Staphylococcus aureus [25] (read-out: DIZ), 17 mm; with Staphylococcus aureus [26] (ATCC 29213, 18 h, read-out: DIZ) it was 16 mm; with Staphylococcus aureus [27] (NCTC 4163, 18 h, read-out: DIZ), 18 mm; in the data set with Staphylococcus aureus [28] (ATCC 25923, 18 h, read-out: DIZ), 16 mm. Moreover, the “diameter of the inhibition zone (DIZ)” value (in [16]; with Pseudomonas aeruginosa [18]; in the data set on Escherichia coli [20]; in the data set with Escherichia coli [21]; in the data set on Escherichia coli [22]) was “inactive” in each case.

Turning to `CC1(C)Cc2c(Br)c(Br)c(Br)c(OCC(O)CN3CCN(c4ccccc4)CC3)c2O1` (stereo not given), it took 31 µM to reach half-maximal cytotoxicity in data set [33] (CC50 at 96 h). In addition, in [34], the EC50 (usually the concentration that produces a half-maximal response) was more than 31 µM.

For `CC1(C)Cc2c(Br)c(Br)c(Br)c(OCC(O)CN3CCN(c4ccc(F)cc4)CC3)c2O1` (stereo not given), the “diameter of the inhibition zone (DIZ)” value (in the data set with Candida parapsilosis [13]; with Candida albicans [14]; in the data set on Candida albicans [15]; in data set [16]; in the data set on Pseudomonas aeruginosa [17]; in the data set on Pseudomonas aeruginosa [18]) was “inactive” throughout. Moreover, the “diameter of the inhibition zone (DIZ)” value with Proteus vulgaris [19], in the data set on Escherichia coli [20], in the data set with Escherichia coli [21], in the data set with Escherichia coli [22], with Enterococcus hirae [23] and with Bacillus subtilis [24] was “inactive” throughout. In addition, the “diameter of the inhibition zone (DIZ)” value with Staphylococcus aureus [25], in the data set with Staphylococcus aureus [26], in the data set with Staphylococcus aureus [27] and with Staphylococcus aureus [28] was “inactive” throughout.
